This note sets out measurements from BindingDB's records for doi:10.1021/jm00067a004 (Glaxo Group Research, 1993).

“And” between values parts separate entries of the source, which are not always exact repeats. Identical values can stand only once. A value given as a limit tells only on which side of the number the result lay.

The first experiment can be described thus: In vitro agonist activity at kappa opioid receptor in rabbit vas deferens.
A word on the IC50: it is the point on the concentration scale where inhibition reaches its midpoint. Read a high IC50 as weaker potency in that assay. Regarding `COC(=O)N1CCN(C(=O)Cc2ccc(Cl)c(Cl)c2)C(CN2CCCC2)C1` (centres undefined) [GR-89696], the IC50 was 0.041 nM and 0.018 nM.

Test in a further experiment: as above
The source holds these as a separate data set.
The compound `CC(=O)N1CCN(C(=O)Cc2ccc(Cl)c(Cl)c2)C(CN2CCCC2)C1` (centres undefined) [1-(4-Acetyl-2-pyrrolidin-1-ylmethyl-piperazin-1-yl)-2-(3,4-dichloro-phenyl)-ethanone] yielded a half-inhibitory concentration (IC50) of 10 nM.
The same measure, in the same setting: for `O=C(c1ccccc1)N1CCN(C(=O)Cc2ccc(Cl)c(Cl)c2)C(CN2CCCC2)C1` (centres undefined) [1-(4-Benzoyl-2-pyrrolidin-1-ylmethyl-piperazin-1-yl)-2-(3,4-dichloro-phenyl)-ethanone] the value was > 10000 nM; for `CCCC(=O)N1CCN(C(=O)Cc2ccc(Cl)c(Cl)c2)C(CN2CCCC2)C1` (centres undefined) [1-{4-[2-(3,4-Dichloro-phenyl)-acetyl]-3-pyrrolidin-1-ylmethyl-piperazin-1-yl}-butan-1-one], 60 nM.
`CCC(=O)N1CCN(C(=O)Cc2ccc(Cl)c(Cl)c2)C(CN2CCCC2)C1` (centres undefined) [1-{4-[2-(3,4-Dichloro-phenyl)-acetyl]-3-pyrrolidin-1-ylmethyl-piperazin-1-yl}-propan-1-one] came in with a half-maximal inhibitory concentration (IC50) of 6.9 nM.
`C=CC(=O)N1CCN(C(=O)Cc2ccc(Cl)c(Cl)c2)C(CN2CCCC2)C1` (centres undefined) [1-{4-[2-(3,4-Dichloro-phenyl)-acetyl]-3-pyrrolidin-1-ylmethyl-piperazin-1-yl}-propenone] came in with a half-maximal inhibitory concentration (IC50) of 0.42 nM. Against the preceding compound, the IC50 is about 16-fold lower.
On the same count and under the same terms, under `O=C(Cc1ccccc1)N1CCN(C(=O)Cc2ccc(Cl)c(Cl)c2)C(CN2CCCC2)C1` (centres undefined) [2-(3,4-Dichloro-phenyl)-1-(4-phenylacetyl-2-pyrrolidin-1-ylmethyl-piperazin-1-yl)-ethanone] stands > 10000 nM; under `COCC(=O)N1CCN(C(=O)Cc2ccc(Cl)c(Cl)c2)C(CN2CCCC2)C1` (centres undefined) [2-(3,4-Dichloro-phenyl)-1-[4-(2-methoxy-acetyl)-2-pyrrolidin-1-ylmethyl-piperazin-1-yl]-ethanone], 2900 nM; under `COC(=O)N1CCN(C(=O)Cc2ccc(Cl)c(Cl)c2)C(CN2CC=CCC2)C1` (centres undefined) [4-[2-(3,4-Dichloro-phenyl)-acetyl]-3-(3,6-dihydro-2H-pyridin-1-ylmethyl)-piperazine-1-carboxylic acid methyl ester], 0.04 nM.
The same measure, in the same setting: for `COC(=O)N1CCN(C(=O)Cc2ccc(Cl)c(Cl)c2)C(CN2CCC(O)C2)C1` (centres undefined) [4-[2-(3,4-Dichloro-phenyl)-acetyl]-3-(3-hydroxy-pyrrolidin-1-ylmethyl)-piperazine-1-carboxylic acid methyl ester] the value was 0.34 nM.
On the same count and under the same terms, for `COC(=O)/C=C1/CCN(CC2CN(C(=O)OC)CCN2C(=O)Cc2ccc(Cl)c(Cl)c2)C1` (centres undefined) [4-[2-(3,4-Dichloro-phenyl)-acetyl]-3-(3-methoxycarbonylmethylene-pyrrolidin-1-ylmethyl)-piperazine-1-carboxylic acid methyl ester] the value was 0.28 nM.
Turning to `COC(=O)/C=C1\CCN(CC2CN(C(=O)OC)CCN2C(=O)Cc2ccc(Cl)c(Cl)c2)C1` (centres undefined) [4-[2-(3,4-Dichloro-phenyl)-acetyl]-3-(3-methoxycarbonylmethylene-pyrrolidin-1-ylmethyl)-piperazine-1-carboxylic acid methyl ester], the IC50 is 4 nM.
`COC(=O)N1CCN(C(=O)Cc2ccc(Cl)c(Cl)c2)C(CN2CCC(=O)C2)C1` (centres undefined) [4-[2-(3,4-Dichloro-phenyl)-acetyl]-3-(3-oxo-pyrrolidin-1-ylmethyl)-piperazine-1-carboxylic acid methyl ester] came in with an IC50 of 0.34 nM.
The same measure, in the same setting: under `COC(=O)N1CCN(C(=O)Cc2ccc(Cl)c(Cl)c2)C(CN(C)C)C1` (centres undefined) [4-[2-(3,4-Dichloro-phenyl)-acetyl]-3-dimethylaminomethyl-piperazine-1-carboxylic acid methyl ester] stands 1.2 nM; under `O=CN1CCN(C(=O)Cc2ccc(Cl)c(Cl)c2)C(CN2CCCC2)C1` (centres undefined) [4-[2-(3,4-Dichloro-phenyl)-acetyl]-3-pyrrolidin-1-ylmethyl-piperazine-1-carbaldehyde], 15 nM.
Turning to `O=C(OCc1ccccc1)N1CCN(C(=O)Cc2ccc(Cl)c(Cl)c2)C(CN2CCCC2)C1` (centres undefined) [4-[2-(3,4-Dichloro-phenyl)-acetyl]-3-pyrrolidin-1-ylmethyl-piperazine-1-carboxylic acid benzyl ester], the IC50 turned out to be 450 nM.
`CCOC(=O)N1CCN(C(=O)Cc2ccc(Cl)c(Cl)c2)C(CN2CCCC2)C1` (centres undefined) [4-[2-(3,4-Dichloro-phenyl)-acetyl]-3-pyrrolidin-1-ylmethyl-piperazine-1-carboxylic acid ethyl ester] yielded a concentration for half-maximal inhibition (IC50) of 3.5 nM.
The same measure, in the same setting: for `O=C(Oc1ccccc1)N1CCN(C(=O)Cc2ccc(Cl)c(Cl)c2)C(CN2CCCC2)C1` (centres undefined) [4-[2-(3,4-Dichloro-phenyl)-acetyl]-3-pyrrolidin-1-ylmethyl-piperazine-1-carboxylic acid phenyl ester] the value was > 10000 nM; for `CCCOC(=O)N1CCN(C(=O)Cc2ccc(Cl)c(Cl)c2)C(CN2CCCC2)C1` (centres undefined) [4-[2-(3,4-Dichloro-phenyl)-acetyl]-3-pyrrolidin-1-ylmethyl-piperazine-1-carboxylic acid propyl ester], 300 nM.
